The results in this text go back to ChEMBL document CHEMBL1201862, “PubChem BioAssay data set” (2004).

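Values below derive from 48-hour exposures of cells grown in 96-well plates, with endpoints linearly interpolated between the two concentrations bracketing the appropriate inhibition level. GI50: concentration for 50% inhibition of growth.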 The source made the active and inactive calls. No stated cut-off is given here; in the data, active = GI50 up to about 1.1 µM and inactive = higher.

Some test systems named below: UACC-257; HCT-116; MDA-MB-231; A549; RPMI-8226; SK-MEL-2; SR; SK-MEL-5; A498; TK-10; SF-295; LOX IMVI; HT-29; 786-0; SW-620; T47D; NCI-H226; OVCAR-8; CCRF-CEM; EKVX.
Experiment in all cases: inhibition of tumour cell growth, NCI panel, 48 h

For the molecule `COC1=C(Br)C(O)C2(C=C1Br)CC(C(=O)NCCCCNC(=O)C1=NOC3(C=C(Br)C(OC)=C(Br)C3O)C1)=NO2` (stereo not drawn), the GI50 in the assay with UACC-257 was 16.3 µM (inactive); in the assay on HCT-116, 18.2 µM (inactive); with MDA-MB-231 it was 22.3 µM (inactive); in the assay on A549, 30.6 µM (inactive); with RPMI-8226, 8.99 µM (inactive); with SK-MEL-2, 23.7 µM (inactive). In addition, the GI50 is 13.8 µM (inactive) in the assay with SR; 11.9 µM (inactive) in the assay with SK-MEL-5; 31 µM (inactive) in the assay on A498; 65.3 µM (inactive) in the assay on TK-10; 25.1 µM (inactive) in the assay on SF-295; 17 µM (inactive) with LOX IMVI. Further, the GI50 in the assay with HT-29 was 15.9 µM (inactive); in the assay on 786-0, 31.1 µM (inactive); in the assay with SW-620, 37.1 µM (inactive); in the assay with T47D, 11.4 µM (inactive); in the assay with NCI-H226, 4.73 µM (inactive); in the assay on OVCAR-8, 20.3 µM (inactive). For the same molecule, in the assay on CCRF-CEM, the GI50 is 10.1 µM (inactive).
As to `N=C(N)SCc1ccc2c(c1)S(=O)(=O)c1ccccc1O2`, the GI50 was 16.3 µM (inactive) in the assay with UACC-257; 22 µM (inactive) with HCT-116; 39.8 µM (inactive) in the assay on MDA-MB-231; 19 µM (inactive) in the assay with A549; 37.7 µM (inactive) with RPMI-8226; 16.4 µM (inactive) in the assay on SK-MEL-2. The GI50 in the assay with SR is 23 µM (inactive); in the assay with A498, 17.5 µM (inactive); with TK-10, 15.7 µM (inactive); in the assay with SF-295, 21.2 µM (inactive); in the assay with LOX IMVI it was 19.4 µM (inactive); in the assay on EKVX, 17 µM (inactive). Moreover, the GI50 in the assay on HT-29 was 15.6 µM (inactive); with 786-0, 33.6 µM (inactive); in the assay on SW-620 it was 17.8 µM (inactive); with T47D, 22.5 µM (inactive); with NCI-H226 it was 16.7 µM (inactive); in the assay on OVCAR-8 it was 30.1 µM (inactive). The GI50 in the assay with CCRF-CEM is 10.5 µM (inactive).
`CN(C)CN1C(=O)S/C(=C2\C(=O)N(CN(C)C)c3ccccc32)C1=O`: the GI50 in the assay with UACC-257 is 32.7 µM (inactive); in the assay with HCT-116 it was 39.8 µM (inactive); with MDA-MB-231, 66.2 µM (inactive); in the assay on A549 it was 45.8 µM (inactive); in the assay with RPMI-8226, 18 µM (inactive); with SK-MEL-2, 32.1 µM (inactive). Also, the GI50 was 18.9 µM (inactive) in the assay with SR; 38.6 µM (inactive) in the assay with SK-MEL-5; > 100 µM (inactive) with A498; 46.3 µM (inactive) in the assay with TK-10; 96.6 µM (inactive) in the assay with SF-295; 21.2 µM (inactive) in the assay on LOX IMVI. In addition, the GI50 was 43.3 µM (inactive) in the assay on EKVX; 42.4 µM (inactive) in the assay on HT-29; 35.7 µM (inactive) with 786-0; 30.6 µM (inactive) with SW-620; 39.4 µM (inactive) in the assay with T47D; 38.9 µM (inactive) in the assay with NCI-H226. The GI50 in the assay with OVCAR-8 is 46.6 µM (inactive).
`O=C1CCC[C@@H]2NC[C@@H](c3ccc4c(c3)OCO4)[C@H]12`: the GI50 with UACC-257, in the assay with HCT-116, with MDA-MB-231, in the assay with A549, with RPMI-8226 and with SK-MEL-2 was > 25 µM (inactive) throughout. Besides, the GI50 in the assay on SR, with SK-MEL-5, in the assay with A498, in the assay on TK-10, in the assay on SF-295 and in the assay on LOX IMVI was > 25 µM (inactive) in each case. Further, the GI50 with EKVX, in the assay on HT-29, with 786-0, in the assay on T47D, in the assay with NCI-H226 and with OVCAR-8 was > 25 µM (inactive) in each case. The GI50 in the assay with CCRF-CEM is > 25 µM (inactive).
With `CN1CCN(C(=S)N2CCN(C)CC2)CC1`, the GI50 was > 100 µM (inactive) with UACC-257; > 100 µM (inactive) in the assay with HCT-116; > 100 µM (inactive) in the assay on MDA-MB-231; > 100 µM (inactive) with A549; 2.06 µM (inactive) with RPMI-8226; > 100 µM (inactive) in the assay on SK-MEL-2. The GI50 with SR is 0.213 µM (active); with SK-MEL-5 it was > 26.1 µM (inactive); with A498, 5.62 µM (inactive); in the assay on TK-10, > 19.7 µM (inactive); with SF-295, > 100 µM (inactive); in the assay on LOX IMVI, > 100 µM (inactive). The GI50 in the assay with HT-29 was 1.73 µM (inactive); with 786-0, 21.9 µM (inactive); in the assay on SW-620, > 30.8 µM (inactive); in the assay on T47D it was 2.11 µM (inactive); in the assay on NCI-H226, > 100 µM (inactive); in the assay with OVCAR-8 it was > 100 µM (inactive). Besides, the GI50 in the assay with CCRF-CEM is 0.7 µM (active).
As to `O=C1C(=C(C(=O)c2ccccc2)C(=O)c2ccccc2)OC(c2ccccc2)=C1C(=O)c1ccccc1`, the GI50 in the assay on UACC-257 is 17.1 µM (inactive); in the assay with HCT-116, 4.44 µM (inactive); with MDA-MB-231, 6.61 µM (inactive); in the assay on A549, 9.04 µM (inactive); in the assay on RPMI-8226 it was 5.56 µM (inactive); in the assay with SK-MEL-2 it was 10.8 µM (inactive). Also, the GI50 in the assay on SR is 2.28 µM (inactive); in the assay on SK-MEL-5, 7.14 µM (inactive); in the assay on A498, 15.6 µM (inactive); in the assay with TK-10, 9.35 µM (inactive); in the assay with SF-295 it was 4.79 µM (inactive); with LOX IMVI, 1.77 µM (inactive). Also, the GI50 with EKVX was 8.28 µM (inactive); with HT-29, 11.7 µM (inactive); in the assay with 786-0 it was 3.51 µM (inactive); in the assay on T47D it was 12 µM (inactive); in the assay on NCI-H226, 3.74 µM (inactive); in the assay with OVCAR-8 it was 4.15 µM (inactive). The GI50 in the assay with CCRF-CEM was 1.78 µM (inactive).
For the molecule `N#Cc1c(N)nc2c(c1-c1ccc(Br)cc1)CSc1ccccc1-2`, the GI50 in the assay on UACC-257 is 13.9 µM (inactive); with HCT-116, 18.5 µM (inactive); in the assay with MDA-MB-231, 13.3 µM (inactive); with A549, 37.2 µM (inactive); in the assay on RPMI-8226, 18.2 µM (inactive); in the assay with SK-MEL-2, 27.2 µM (inactive). The GI50 in the assay on SR was 68.4 µM (inactive); in the assay with SK-MEL-5, 58.7 µM (inactive); in the assay on A498 it was > 100 µM (inactive); in the assay with TK-10, 73.1 µM (inactive); with LOX IMVI, 28.6 µM (inactive); with HT-29, 34.6 µM (inactive). For the same molecule, the GI50 in the assay with 786-0 is 27.1 µM (inactive); with SW-620 it was 83.4 µM (inactive); in the assay on T47D, 17.4 µM (inactive); in the assay on NCI-H226 it was 16.1 µM (inactive); in the assay with OVCAR-8, 55 µM (inactive); with CCRF-CEM it was 22.4 µM (inactive).
Consider `O=C(O)CCCc1ccc2ccccc2c1`, for which the GI50 is > 100 µM (inactive) in the assay on UACC-257; > 100 µM (inactive) in the assay on HCT-116; > 100 µM (inactive) in the assay with MDA-MB-231; > 100 µM (inactive) in the assay on A549; 42.9 µM (inactive) with RPMI-8226; > 100 µM (inactive) with SK-MEL-2. Besides, the GI50 with SR is 97.9 µM (inactive); with SK-MEL-5, > 100 µM (inactive); in the assay with A498 it was > 100 µM (inactive); in the assay with TK-10, > 100 µM (inactive); in the assay with SF-295 it was > 100 µM (inactive); in the assay with LOX IMVI, > 100 µM (inactive). Besides, the GI50 in the assay with EKVX, in the assay with HT-29, in the assay on 786-0, in the assay on SW-620, with T47D and with OVCAR-8 was > 100 µM (inactive) in each case. Also, the GI50 in the assay with CCRF-CEM was > 100 µM (inactive).
`CC(=O)OCC1OC(n2c3c(c(-c4ccc(C)cc4)c(C#N)c2=S)C(=O)CC(C)(C)C3)C(OC(C)=O)C(OC(C)=O)C1OC(C)=O` (stereo not drawn): the GI50 in the assay on UACC-257 is 18.5 µM (inactive); with HCT-116, 34.8 µM (inactive); in the assay on MDA-MB-231, 23.4 µM (inactive); in the assay on A549 it was 50.4 µM (inactive); with RPMI-8226, 27.5 µM (inactive); in the assay on SR, 24.1 µM (inactive). Further, the GI50 in the assay on SK-MEL-5 was 26.9 µM (inactive); with A498, 32.1 µM (inactive); in the assay with TK-10, > 100 µM (inactive); with SF-295, 25.5 µM (inactive); in the assay with LOX IMVI it was 13.3 µM (inactive); in the assay with HT-29 it was 27.3 µM (inactive). For the same molecule, the GI50 with 786-0 is 33.7 µM (inactive); in the assay with SW-620 it was 46 µM (inactive); with T47D, > 10 µM (inactive); with NCI-H226, 23.3 µM (inactive); with OVCAR-8, 36.4 µM (inactive); in the assay on CCRF-CEM it was 31.6 µM (inactive).
Turning to `COC(=O)C1(Cc2cccc(Cl)c2)CCCCCCN1C(=O)c1ccccc1` (stereo not drawn), the GI50 in the assay on UACC-257 was > 10 µM (inactive); in the assay on HCT-116, 13.1 µM (inactive); in the assay on MDA-MB-231, 13 µM (inactive); in the assay on A549, 14.5 µM (inactive); with RPMI-8226 it was 6.7 µM (inactive); with SR, 13.9 µM (inactive). In addition, the GI50 in the assay with SK-MEL-5 is 12.8 µM (inactive); with A498 it was 15.4 µM (inactive); in the assay with TK-10, 12 µM (inactive); in the assay on SF-295, 6.98 µM (inactive); with LOX IMVI, 17.5 µM (inactive); in the assay on EKVX, 12 µM (inactive). Also, the GI50 with HT-29 was 12.9 µM (inactive); in the assay with 786-0 it was 13.2 µM (inactive); in the assay with SW-620, 18.2 µM (inactive); with T47D it was 14.4 µM (inactive); in the assay with NCI-H226, 25.1 µM (inactive); in the assay on OVCAR-8 it was 16.6 µM (inactive). Further, the GI50 with CCRF-CEM was 13.1 µM (inactive).
